Assay results reported in US12134610B2, “Somatostatin subtype-2 receptor (SST2R) targeted therapeutics and uses thereof” (priority 2022, dated 2024).
Where two headings read alike, the source gives them in different places. Starred links: 1 amine or outer side, 2 acyl side, 3 side chain; linkers in the order of their positions; H or OH if unused. Non-standard residues stand in square brackets, D forms with d. Residues, ends and D or L forms follow the SMILES beside them. *: point of attachment. PABC(3-O-βDGlc) = O=C(OCc1ccc(N[*:1])c(O[C@@H]2O[C@H](CO)[C@@H](O)[C@H](O)[C@H]2O)c1)[*:2]; X1 = Cc1cc(F)cc(-c2cnc(NCCNC(=O)CCOCCC(=O)*)c(-c3nc4ccc(Cl)cc4[nH]3)c2N2CCC(N)CC2)c1; Dolaproine = CO[C@@H]([C@@H]1CCCN1)[C@@H](C)C(=O)O; Dil = CC[C@H](C)[C@H](NC)[C@@H](CC(=O)O)OC; X2 = C[C@@H](N*)[C@@H](O)c1ccccc1; Cit = NC(=O)NCCC[C@H](N)C(=O)O; NMeV = CN[C@H](C(=O)O)C(C)C

Tests used:
Format in all cases: cell-based
[1] = target: T1, human somatostatin receptor subtype 2 (Homo sapiens, UniProt P30874); test: Functional cAMP assay for SSTR2 agonists (HTRF) in CHO-K1 cells; details: CHO-K1 cells stably expressing human SST2, 20 min
T1 construct: expressed in transfected cells
T1 sequence (P30874 whole entry): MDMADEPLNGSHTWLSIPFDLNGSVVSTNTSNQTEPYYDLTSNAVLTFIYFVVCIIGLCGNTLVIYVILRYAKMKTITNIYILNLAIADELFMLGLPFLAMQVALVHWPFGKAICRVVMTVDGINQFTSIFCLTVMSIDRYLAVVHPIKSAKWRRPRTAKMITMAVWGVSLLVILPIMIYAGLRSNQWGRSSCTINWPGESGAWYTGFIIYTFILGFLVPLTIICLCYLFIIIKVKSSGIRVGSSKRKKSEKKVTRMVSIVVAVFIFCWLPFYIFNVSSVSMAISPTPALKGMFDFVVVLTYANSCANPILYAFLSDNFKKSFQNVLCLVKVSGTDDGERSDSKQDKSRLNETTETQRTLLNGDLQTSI
Outline: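 CHO-K1 cells stably expressing receptor, plated 4 days before assay, treated 20 min at 37° C. with compound (typically 0-10,000 nM final) plus IBMX and 1.6 μM NKH477 to raise cAMP. HTRF read, 665/620 nm ratio; cAMP from standard curve, EC50 fitted.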

[2] = target: T2, SST2 (Homo sapiens, UniProt P30874); test: PathHunter CHO-K1 SST2 internalization assay; details: PathHunter CHO-K1 SST2, 90 min
T2 construct: host or cells: PathHunter CHO-K1 SST2 cells
T2 sequence (P30874 whole entry): as above
Outline: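 PathHunter CHO-K1 SST2 cells, seeded and grown 48 h, were exposed to 11-point 1:3 dilutions of SMDC (top final 10 uM) for 90 min at 37 C, 5% CO2. Beta-Glo luminescence was read after 60 min at room temperature. Background-corrected duplicate means were fitted by four-parameter nonlinear regression to give IC50.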

[3] = tested on: NCI-H524 (ATCC) human small cell lung cancer cells
Outline: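 NCI-H524 cells (5,000/well) were exposed 24 h after plating to SMDC for 2 h, 11-point two-fold series from 1 uM. After washout they grew a further 70 h. Proliferation was read by CellTiter-Glo luminescence, % inhibition taken vs untreated control, and IC50 fitted by four-parameter nonlinear regression.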

SMILES | EC50 ([1]; read-out: hSST2 cAMP Avg EC50) [nM] | EC50 ([2]; read-out: Internalization EC50) [nM] | EC50 ([3]; 2 h) [nM] | EC50 ([1]; hSST2 cAMP Avg EC50 (nM)) [nM] | EC50 ([2]; Internalization EC50 (nM)) [nM] | EC50 ([3]; 2 h treatment, washout, additional 70 h, read-out: H524 EC50) [nM]
CC[C@H](C)[C@@H]([C@@H](CC(=O)N1CCC[C@H]1[C@H](OC)[C@@H](C)C(=O)N[C@H](C)[C@@H](O)c1ccccc1)OC)N(C)C(=O)[C@@H](NC(=O)[C@H](C(C)C)N(C)C(=O)OCc1ccc(NC(=O)[C@H](CCCNC(N)=O)NC(=O)[C@@H](NC(=O)CCOCCOCCOCCOCCC(=O)NCCNc2ncc(-c3cc(C)cc(F)c3)c(N3CCC(N)CC3)c2-c2nc3ccc(Cl)cc3[nH]2)C(C)C)cc1C(N)=O)C(C)C [Compound 123] | 0.13 | 7 | 18 | – | – | –
CC[C@H](C)[C@@H]([C@@H](CC(=O)N1CCC[C@H]1[C@H](OC)[C@@H](C)C(=O)N[C@H](C)[C@@H](O)c1ccccc1)OC)N(C)C(=O)[C@@H](NC(=O)[C@H](C(C)C)N(C)C(=O)OCc1ccc(NC(=O)[C@H](CCCNC(N)=O)NC(=O)[C@@H](NC(=O)CCOCCOCCOCCOCCC(=O)NCCNc2ncc(-c3cc(C)cc(F)c3)c(N3CCC(N)CC3)c2-c2nc3ccc(Cl)cc3[nH]2)C(C)C)cc1C(=O)NCC(N)=O)C(C)C [Compound 124] | 0.16 | 5.6 | 5.3 | – | – | –
CC[C@H](C)[C@@H]([C@@H](CC(=O)N1CCC[C@H]1[C@H](OC)[C@@H](C)C(=O)N[C@H](C)[C@@H](O)c1ccccc1)OC)N(C)C(=O)[C@@H](NC(=O)[C@H](C(C)C)N(C)C(=O)OCc1ccc(NC(=O)[C@H](CCCNC(N)=O)NC(=O)[C@@H](NC(=O)CCOCCC(=O)NCCNc2ncc(-c3cc(C)cc(F)c3)c(N3CCC(N)CC3)c2-c2nc3ccc(Cl)cc3[nH]2)C(C)C)cc1C(=O)NCC(N)=O)C(C)C [Compound 125] | 0.17 | 3.9 | 3.4 | – | – | –
CC[C@@]1(O)C(=O)OCc2c1cc1n(c2=O)Cc2c-1nc1cc(F)c(C)c3c1c2[C@@H](NC(=O)OCc1ccc(NC(=O)[C@H](CCCNC(N)=O)NC(=O)[C@@H](NC(=O)CCOCCC(=O)NCCNc2ncc(-c4cc(C)cc(F)c4)c(N4CCC(N)CC4)c2-c2nc4ccc(Cl)cc4[nH]2)C(C)C)c(O[C@@H]2O[C@H](C(=O)O)[C@@H](O)[C@H](O)[C@H]2O)c1)CC3 [Compound 126] | – | – | – | 0.29 | 3.4 | 100
CC[C@H](C)[C@@H]([C@@H](CC(=O)N1CCC[C@H]1[C@H](OC)[C@@H](C)C(=O)N[C@H](C)[C@@H](O)c1ccccc1)OC)N(C)C(=O)[C@@H](NC(=O)[C@H](C(C)C)N(C)C(=O)OCc1ccc(NC(=O)[C@H](CCCNC(N)=O)NC(=O)[C@@H](NC(=O)CCOCCNCCNc2ncc(-c3cc(C)cc(F)c3)c(N3CCC(N)CC3)c2-c2nc3ccc(Cl)cc3[nH]2)C(C)C)c(O[C@@H]2O[C@H](C(=O)O)[C@@H](O)[C@H](O)[C@H]2O)c1)C(C)C [Compound 128] | 0.18 | 8.7 | 31 | – | – | –
CC[C@H](C)[C@@H]([C@@H](CC(=O)N1CCC[C@H]1[C@H](OC)[C@@H](C)C(=O)N[C@H](C)[C@@H](O)c1ccccc1)OC)N(C)C(=O)[C@@H](NC(=O)[C@H](C(C)C)N(C)C(=O)OCc1ccc(NC(=O)[C@H](CCCNC(N)=O)NC(=O)[C@@H](NC(=O)CCOCCOCCOCCOCCNCCNc2ncc(-c3cc(C)cc(F)c3)c(N3CCC(N)CC3)c2-c2nc3ccc(Cl)cc3[nH]2)C(C)C)c(O[C@@H]2O[C@H](C(=O)O)[C@@H](O)[C@H](O)[C@H]2O)c1)C(C)C [Compound 129] | 0.34 | 21 | 290 | – | – | –
CC[C@H](C)[C@@H]([C@@H](CC(=O)N1CCC[C@H]1[C@H](OC)[C@@H](C)C(=O)N[C@H](C)[C@@H](O)c1ccccc1)OC)N(C)C(=O)[C@@H](NC(=O)[C@H](C(C)C)N(C)C(=O)OCc1ccc(NC(=O)[C@H](C)NC(=O)[C@@H](NC(=O)CCOCCNCCNc2ncc(-c3cc(C)cc(F)c3)c(N3CCC(N)CC3)c2-c2nc3ccc(Cl)cc3[nH]2)C(C)C)c(O[C@@H]2O[C@H](C(=O)O)[C@@H](O)[C@H](O)[C@H]2O)c1)C(C)C [Compound 130] | 0.29 | 25 | 140 | – | – | –
CC[C@H](C)[C@@H]([C@@H](CC(=O)N1CCC[C@H]1[C@H](OC)[C@@H](C)C(=O)N[C@H](C)[C@@H](O)c1ccccc1)OC)N(C)C(=O)[C@@H](NC(=O)[C@H](C(C)C)N(C)C(=O)OCc1ccc(NC(=O)[C@H](C)NC(=O)[C@@H](NC(=O)CCOCCC(=O)NCCNc2ncc(-c3cc(C)cc(F)c3)c(N3CCC(N)CC3)c2-c2nc3ccc(Cl)cc3[nH]2)C(C)C)c(O[C@@H]2O[C@H](CO)[C@@H](O)[C@H](O)[C@H]2O)c1)C(C)C [Compound 131] | 0.13 | 5.2 | 4 | – | – | –
CC[C@H](C)[C@@H]([C@@H](CC(=O)N1CCC[C@H]1[C@H](OC)[C@@H](C)C(=O)N[C@H](C)[C@@H](O)c1ccccc1)OC)N(C)C(=O)[C@@H](NC(=O)[C@H](C(C)C)N(C)C(=O)OCc1ccc(NC(=O)[C@H](CCCNC(N)=O)NC(=O)[C@@H](NC(=O)CCOCCC(=O)NCCNc2ncc(-c3cc(C)cc(F)c3)c(N3CCC(N)CC3)c2-c2nc3ccc(Cl)cc3[nH]2)C(C)C)c(O[C@@H]2O[C@H](C(=O)O)[C@@H](O)[C@H](O)[C@H]2O)c1)C(C)C [Compound 132] | 0.2 | 5.7 | 22 | – | – | –
CC[C@H](C)[C@@H]([C@@H](CC(=O)N1CCC[C@H]1[C@H](OC)[C@@H](C)C(=O)N[C@H](C)[C@@H](O)c1ccccc1)OC)N(C)C(=O)[C@@H](NC(=O)[C@H](C(C)C)N(C)C(=O)OCc1ccc(NC(=O)[C@H](CCCNC(N)=O)NC(=O)[C@@H](NC(=O)CCCCC(=O)NCCNc2ncc(-c3cc(C)cc(F)c3)c(N3CCC(N)CC3)c2-c2nc3ccc(Cl)cc3[nH]2)C(C)C)c(O[C@@H]2O[C@H](C(=O)O)[C@@H](O)[C@H](O)[C@H]2O)c1)C(C)C [Compound 133] | 0.11 | 6 | 34 | – | – | –
CC[C@H](C)[C@@H]([C@@H](CC(=O)N1CCC[C@H]1[C@H](OC)[C@@H](C)C(=O)N[C@H](C)[C@@H](O)c1ccccc1)OC)N(C)C(=O)[C@@H](NC(=O)[C@H](C(C)C)N(C)C(=O)OCc1ccc(NC(=O)[C@H](CCCNC(N)=O)NC(=O)[C@@H](NC(=O)CCOCCC(=O)NCCNc2ncc(-c3cc(C)cc(F)c3)c(N3CCC(N)CC3)c2-c2nc3ccc(Cl)cc3[nH]2)C(C)C)c(O[C@@H]2O[C@H](CO)[C@@H](O)[C@H](O)[C@H]2O)c1)C(C)C [Compound 134] | 0.18 | 4.6 | 3.8 | – | – | –
CC[C@H](C)[C@@H]([C@@H](CC(=O)N1CCC[C@H]1[C@H](OC)[C@@H](C)C(=O)N[C@H](C)[C@@H](O)c1ccccc1)OC)N(C)C(=O)[C@@H](NC(=O)[C@H](C(C)C)N(C)C(=O)OCc1ccc(NC(=O)[C@H](CCCNC(N)=O)NC(=O)[C@@H](NC(=O)[C@H](CCC(=O)O)NC(=O)CCOCCC(=O)NCCNc2ncc(-c3cc(C)cc(F)c3)c(N3CCC(N)CC3)c2-c2nc3ccc(Cl)cc3[nH]2)C(C)C)c(O[C@@H]2O[C@H](CO)[C@@H](O)[C@H](O)[C@H]2O)c1)C(C)C [Compound 135] (X1-EV[Cit][PABC(3-O-βDGlc)][NMeV]V[Dil][Dolaproine]-X2) | 0.15 | 2.8 | 38 | – | – | –
CC[C@H](C)[C@@H]([C@@H](CC(=O)N1CCC[C@H]1[C@H](OC)[C@@H](C)C(=O)N[C@H](C)[C@@H](O)c1ccccc1)OC)N(C)C(=O)[C@@H](NC(=O)[C@H](C(C)C)N(C)C(=O)OCc1ccc(NC(=O)[C@H](CCCNC(N)=O)NC(=O)[C@@H](NC(=O)[C@H](CCC(N)=O)NC(=O)CCOCCC(=O)NCCNc2ncc(-c3cc(C)cc(F)c3)c(N3CCC(N)CC3)c2-c2nc3ccc(Cl)cc3[nH]2)C(C)C)c(O[C@@H]2O[C@H](CO)[C@@H](O)[C@H](O)[C@H]2O)c1)C(C)C [Compound 136] (X1-QV[Cit][PABC(3-O-βDGlc)][NMeV]V[Dil][Dolaproine]-X2) | 0.23 | 6.7 | 5.8 | – | – | –
CC[C@H](C)[C@@H]([C@@H](CC(=O)N1CCC[C@H]1[C@H](OC)[C@@H](C)C(=O)N[C@H](C)[C@@H](O)c1ccccc1)OC)N(C)C(=O)[C@@H](NC(=O)[C@H](C(C)C)N(C)C(=O)OCc1ccc(NC(=O)[C@H](CCCNC(N)=O)NC(=O)[C@@H](NC(=O)CCOCCOCCC(=O)NCCNc2ncc(-c3cc(C)cc(F)c3)c(N3CCC(N)CC3)c2-c2nc3ccc(Cl)cc3[nH]2)C(C)C)c(O[C@@H]2O[C@H](C(=O)O)[C@@H](O)[C@H](O)[C@H]2O)c1)C(C)C [Compound 137] | 0.51 | 4.6 | 6.7 | – | – | –
CC[C@H](C)[C@@H]([C@@H](CC(=O)N1CCC[C@H]1[C@H](OC)[C@@H](C)C(=O)N[C@H](C)[C@@H](O)c1ccccc1)OC)N(C)C(=O)[C@@H](NC(=O)[C@H](C(C)C)N(C)C(=O)OCc1ccc(NC(=O)[C@H](CCCNC(N)=O)NC(=O)[C@@H](NC(=O)CCOCCOCCOCCC(=O)NCCNc2ncc(-c3cc(C)cc(F)c3)c(N3CCC(N)CC3)c2-c2nc3ccc(Cl)cc3[nH]2)C(C)C)c(O[C@@H]2O[C@H](C(=O)O)[C@@H](O)[C@H](O)[C@H]2O)c1)C(C)C [Compound 138] | 0.16 | 5.2 | 12 | – | – | –
